Data on one compound can be found in patent US20240010726A1, “LFA-1 SIGNALLING MEDIATOR FOR USE IN CANCER THERAPY” (Universität Basel, priority 2020, published 2024).

One test has as its system human naïve CD8 T cells. Kind of test: Metabolic flux analysis, glycolytic switch of naïve CD8 T cells. The test is classed as cell-based. To be noted: anti-CD3 or anti-CD3/anti-CD28 Ab; 0 mM vs 1.2 mM Mg^2+. On the procedure:
FIG. 2: Extracellular magnesium promotes memory-specific activation via LFA-1. Glycolytic switch of human EM CD8 T cells (a) and naïve CD8 T cells (b) subsets upon injection of anti-CD3 Ab only, or anti-CD3 and anti-CD28 Ab, was assessed by metabolic flux analysis in medium containing either 1.2 mM Mg^2+, 0 mM Mg^2+, or medium which was reconstituted from 0 mM to 1.2 mM Mg^2+ immediately prior to activation (0→1.2 mM Mg^2+). (a) Results for human effector memory (EM) and (b) for human naïve CD8 T cells. Glycolytic switch was quantified by subtracting […] measurements. (c) Flow cytometric analysis of surface activation markers on human EM CD8 T cells 24 hours after activation by plate-bound anti-CD3 Ab and soluble anti-CD28 Ab, in 1.2 mM and 0 mM Mg^2+ media, respectively. (d) Abundance of inflammatory cytokines in corresponding EM CD8 T cell culture supernatants, determined by CBA. (e) CD11a (LFA-1) surface expression on human naïve and EM CD8 T cells as well PHA T cell blasts. Flow cytometry-based assessment of total LFA-1 expression assessed by mAb TS2/4 (f), closed conformation of αL by mAb HI111 (g), extended conformation of LFA-1 by mAb Kim127 (h), open head-piece conformation of LFA-1 by mAb m24 (i), phosphorylation of focal adhesion kinase (FAK) […] as well TNF expression (k)±TCR-induced activation in different extracellular Mg^2+ concentrations. […]

The subject of test [1] is anti-PSMA CAR T cells co-cultured with PC3-PIP. Kind of test: Cytokine release assay of anti-PSMA CAR T cells (IFNγ ELISA). The following applies: 24 h; 0 mM vs 0.6 mM Mg^2+. The test is classed as cell-based, human. On the procedure: FIG. 3: Magnesium regulates LFA-1 mediated T cell activation and cytotoxicity as well BiTE- and CAR T-cell functionality. (a) Glycolytic switch of murine WT and LFA-1^−/− CTLs upon injection of anti-CD3/28 Ab in medium containing 1.2 mM Mg^2+ and 0 mM Mg^2+, presented as quantification of summarized data with n=4 mice. (b) Calcium flux in WT and LFA-1^−/− Jurkat T cells stimulated with anti-CD3 Ab in 1.2 mM and 0 mM Mg^2+ medium, respectively. Cells were loaded with Fluo4, and signal intensity as recorded by plate reader, was normalized to unstimulated baseline values. […] Quantified results of n=3 mice with 3 technical replicates each. […] The effector to target cell ratio was 3:1. Results are quantified of n=3 mice with 3 technical replicates each. (e) Representative CD11a (LFA-1) surface expression on human naïve and EM CD8 T cells, PHA T cell blasts and REP T cells, assessed by flow cytometry. […] The effector to target cell ratio was 1:1. Data is presented as quantified results of n=5 healthy donors (f, g, h), n=3 healthy donors with 2 technical replicates each or n=1 healthy donor with 4 technical replicates (j). […] Data is presented as quantified results of n=1 healthy donor with 4 technical replicates. […] (p) Abundance of IFNγ in cell culture supernatants corresponding to the conditions depicted in (o) at 24 hours was determined by ELISA (n=8, 3 independent experiments). […]
(In general: In an ELISA, binding on a coated surface is turned into a signal by an enzyme label.)

`[Mg+2]` [Mg^2+, Magnesium]: the “Glycolytic switch (ECAR) of naïve CD8 T cells” value in the test on human naïve CD8 T cells was “no impaired activation-induced upregulation of glycolysis”. Also, in test [1], the IFNγ release entry is reported as “reduced inflammatory IFNγ release”.
